The values that follow come from ChEMBL document CHEMBL1201862, “PubChem BioAssay data set” (2004).

Each structure is given as a SMILES string.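 Cultured in 96-well plates, cells were exposed to test compound for 48 hours across five concentrations. GI50: concentration for 50% inhibition of growth.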 The source made the active and inactive calls. No stated cut-off is given here; in the data, active = GI50 up to about 1.1 µM and inactive = higher. Some results are limits rather than exact numbers.

Holding throughout (test): NCI tumour cell line growth inhibition, 48 h
In assay [1] the test system is HT-29.
The subject of assay [2] is SR.
In assay [3] the test system is 786-0.
Assay [4] concerns HCC 2998.
Assay [5] concerns HCT-15.
The subject of assay [6] is HOP-92.
Assay [7] concerns LOX IMVI.
The subject of assay [8] is NCI-H23.
Assay [9] relates to K562.
In assay [10] the test system is UACC-62.
The test system of assay [11] is KM12.
For assay [12], the system named is CCRF-CEM.
For assay [13], the system named is SNB-19.
Assay [14] deals with NCI-H226.
Assay [15] deals with SF-295.
Assay [16] concerns A498.
The test system of assay [17] is HCT-116.

`Oc1cc(-c2ccc3c(c2)OCO3)nc2cc3c(cc12)OCO3`: the GI50 in assay [1] is 37.8 µM (inactive); in [2] it was 6.35 µM (inactive); in assay [3] it was 34.9 µM (inactive); in [4] it was 31.4 µM (inactive); in assay [5] it was 40.3 µM; in assay [6], > 100 µM (inactive). Besides, the GI50 in [7] is 57.8 µM (inactive); in assay [8], 32.4 µM (inactive); in assay [9], 28.8 µM (inactive); in [10], 36.9 µM (inactive); in assay [11] it was 36.1 µM (inactive); in assay [12] it was 31.7 µM (inactive). Also, the GI50 was 54.3 µM (inactive) in [13] and 34.4 µM (inactive) in [14].
For `C=CCNC(=O)NCCCCC(NC(C)=O)C(=O)NCc1ccccc1` (configuration not stated), the GI50 in assay [1] was > 100 µM (inactive); in assay [3], > 100 µM (inactive); in assay [4], > 100 µM (inactive); in assay [5], > 100 µM; in [15], > 100 µM (inactive); in assay [6] it was > 100 µM (inactive). The GI50 in assay [7], in assay [8], in assay [9], in assay [10], in assay [11] and in assay [12] was > 100 µM (inactive) in each case. The GI50 in assay [13], in assay [16] and in [14] was > 100 µM (inactive) each time.
In the case of `CCCCN(CCCC)C(=Nc1ccccc1)N(CCCC)CCCC`, the GI50 is 2.36 µM (inactive) in assay [1]; 3.3 µM (inactive) in [3]; 4.32 µM (inactive) in assay [4]; 5.38 µM (inactive) in assay [15]; 1.62 µM (inactive) in [6]; 3.15 µM (inactive) in assay [7]. Besides, the GI50 is 2.19 µM (inactive) in [8]; 2.09 µM (inactive) in [9]; 1.67 µM (inactive) in assay [17]; 3.7 µM (inactive) in assay [11]; 3.89 µM (inactive) in [12]; 6.81 µM (inactive) in [13]. In addition, the GI50 in [16] was 9.62 µM (inactive).
For `Cc1ccc(C(=O)NCCN(C)C)c2nc3ccccc3cc12`, the GI50 is 0.462 µM (active) in assay [1]; 2.32 µM (inactive) in assay [3]; 2.56 µM (inactive) in [4]; 0.644 µM in assay [5]; 1.07 µM (active) in assay [15]; 14 µM (inactive) in [6]. The GI50 in [7] was 0.561 µM (active); in assay [9], 1.4 µM (inactive); in assay [17], 0.468 µM (active); in assay [10], 2.47 µM (inactive); in [11], 1.1 µM (active); in assay [12], 1.54 µM (inactive). The GI50 in assay [13] was 2.36 µM (inactive); in assay [14] it was 1.15 µM (inactive).
`N#C/C(=C1\SCC(=O)N1c1ccccc1)c1nc2ccccc2[nH]1`: the GI50 in assay [1] is > 100 µM (inactive); in assay [3], > 100 µM (inactive); in assay [5], > 100 µM; in assay [15], > 100 µM (inactive); in [6] it was > 100 µM (inactive); in assay [7], > 100 µM (inactive). Also, the GI50 in assay [8], in [9], in assay [17], in assay [10], in assay [12] and in [13] was > 100 µM (inactive) throughout. Moreover, the GI50 in assay [16] and in assay [14] was > 100 µM (inactive) in each case.
Regarding `COC(=O)N/N=C(\C(=O)Nc1cccc([N+](=O)[O-])c1)c1nc2ccc([N+](=O)[O-])cc2nc1O`, the GI50 in [1] is 60.7 µM (inactive); in assay [2] it was > 100 µM (inactive); in assay [3] it was 53.1 µM (inactive); in assay [4], 33 µM (inactive); in [15], > 100 µM (inactive); in assay [6], 61.2 µM (inactive). Also, the GI50 in [7] was 18.6 µM (inactive); in assay [8], > 100 µM (inactive); in assay [9], 11.4 µM (inactive); in [17] it was 61.7 µM (inactive); in assay [10] it was 12.4 µM (inactive); in assay [11], 29.4 µM (inactive). Besides, the GI50 in [12], in [13] and in assay [14] was > 100 µM (inactive) each time.
Consider `O=C(O)CNS(=O)(=O)c1ccc(NC(=O)CI)cc1`, for which the GI50 in assay [1] is 21.2 µM (inactive); in assay [3] it was 14.9 µM (inactive); in [4], > 100 µM (inactive); in [5] it was 17.6 µM; in assay [15], 26.3 µM (inactive); in assay [6], 19.4 µM (inactive). Besides, the GI50 in [7] was 19 µM (inactive); in assay [8] it was 18.3 µM (inactive); in [9], 10.2 µM (inactive); in assay [10], 25.1 µM (inactive); in assay [11], 24.8 µM (inactive); in assay [12], 2.33 µM (inactive). The GI50 was 58.2 µM (inactive) in assay [13], > 100 µM (inactive) in [16] and > 100 µM (inactive) in [14].
Consider `O=C1CC[C@@H](S(=O)(=O)c2ccccc2)[C@@H](/C=C/c2ccccc2)O1`, for which the GI50 in assay [1] was > 100 µM (inactive); in assay [2], > 100 µM (inactive); in assay [3], > 100 µM (inactive); in assay [4], > 100 µM (inactive); in [5] it was > 100 µM; in assay [15] it was > 100 µM (inactive). For the same compound, the GI50 in assay [7], in assay [8], in [9], in assay [17], in [10] and in assay [11] was > 100 µM (inactive) throughout. Besides, the GI50 in [12], in [13], in assay [16] and in assay [14] was > 100 µM (inactive) in each case.
`Cc1ccc2c(ccc(/C=C\c3cc(C)c4cccnc4c3O)[n+]2C)c1`: the GI50 was 2.12 µM (inactive) in assay [2]; 2.32 µM (inactive) in [3]; 1.81 µM (inactive) in assay [4]; 10 µM (inactive) in [15]; 0.791 µM (active) in assay [7]; 2.67 µM (inactive) in assay [8]. The GI50 was 0.385 µM (active) in [9]; 0.61 µM (active) in [17]; 0.535 µM (active) in assay [10]; 1.32 µM (inactive) in [11]; 0.796 µM (active) in [12]; 6.08 µM (inactive) in assay [13]. For the same compound, the GI50 in assay [16] is 14.6 µM (inactive); in assay [14] it was 1.4 µM (inactive).
As to `COC(=O)C1=C(C[S+]([O-])c2ccc([N+](=O)[O-])cc2[N+](=O)[O-])C2C=CC1C2` (configuration not stated), the GI50 in assay [1] is 17.7 µM (inactive); in assay [3], 27.1 µM (inactive); in assay [4], 38.4 µM (inactive); in assay [5], 15.7 µM; in assay [15], 65 µM (inactive); in assay [7] it was 13.5 µM (inactive). Further, the GI50 in assay [8] is 26.4 µM (inactive); in assay [9] it was 19 µM (inactive); in assay [17], 21.8 µM (inactive); in assay [10], 18 µM (inactive); in assay [11], 40.3 µM (inactive); in [12] it was 11.8 µM (inactive). In addition, the GI50 in assay [13] is > 100 µM (inactive); in assay [16], > 100 µM (inactive); in assay [14] it was 31.4 µM (inactive).
Take `N#CC(C#N)=c1ccc(=C2NCC3CCCN23)cc1` (configuration not stated): the GI50 is > 100 µM (inactive) in [1]; > 100 µM (inactive) in [2]; > 100 µM (inactive) in [3]; > 100 µM (inactive) in assay [4]; > 100 µM in [5]; > 100 µM (inactive) in assay [15]. For the same compound, the GI50 in assay [6], in assay [7], in [9], in [17], in [10] and in [11] was > 100 µM (inactive) in each case. Also, the GI50 in [12], in [13], in assay [16] and in [14] was > 100 µM (inactive) in each case.
Take `CC(=O)NC1=C(Nc2ccc(C)cc2)C(=O)c2ccccc2C1=O`: the GI50 is 15.2 µM (inactive) in assay [1]; 15.4 µM (inactive) in [3]; 31.7 µM (inactive) in [4]; 14.5 µM in assay [5]; 18.2 µM (inactive) in assay [15]; 9.53 µM (inactive) in assay [7]. Also, the GI50 in [8] is 8.02 µM (inactive); in [9] it was 18.2 µM (inactive); in assay [17], 19.9 µM (inactive); in [10] it was 10.9 µM (inactive); in [11] it was 24.7 µM (inactive); in [12], 17.1 µM (inactive). The GI50 was 29.3 µM (inactive) in [13], 50.2 µM (inactive) in assay [16] and 14.1 µM (inactive) in [14].
As for `COC(=O)[C@@]12C3=NO[C@]1(C(=O)OC)C(O[Si](C)(C)C(C)(C)C)C1OC(C)(C)OC1[C@@H]2[C@@H](OCc1ccccc1)CC3` (some centres not stated), the GI50 in [1] was 33 µM (inactive); in assay [3], > 100 µM (inactive); in assay [4], > 100 µM (inactive); in [5], 91 µM; in assay [15] it was > 100 µM (inactive); in [6], 4.4 µM (inactive). The GI50 in assay [7] is 83.9 µM (inactive); in [8], 58.7 µM (inactive); in [9], 8.93 µM (inactive); in assay [17], 8.2 µM (inactive); in assay [10], > 100 µM (inactive); in assay [11] it was 7.73 µM (inactive). For the same compound, the GI50 in [12], in assay [13], in assay [16] and in assay [14] was > 100 µM (inactive) each time.
